Results published in patent publication US20100267713A1, “4,4-DISUBSTITUTED PIPERIDINES” (priority 2007, published 2010).

Target: T1, renin (Homo sapiens, UniProt P00797)
T1 construct: This test measures the formation of angiotensin I in human plasma; from tissue; host or cells: human plasma
T1 sequence (P00797 67-406): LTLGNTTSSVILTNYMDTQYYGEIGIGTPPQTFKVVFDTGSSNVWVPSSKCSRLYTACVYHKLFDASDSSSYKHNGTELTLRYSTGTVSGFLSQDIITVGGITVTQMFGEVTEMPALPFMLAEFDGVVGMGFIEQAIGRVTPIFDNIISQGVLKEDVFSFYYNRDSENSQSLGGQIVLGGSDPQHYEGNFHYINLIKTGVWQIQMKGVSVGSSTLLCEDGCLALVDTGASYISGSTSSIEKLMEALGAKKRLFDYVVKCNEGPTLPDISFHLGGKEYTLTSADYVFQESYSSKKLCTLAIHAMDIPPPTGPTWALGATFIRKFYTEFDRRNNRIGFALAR
Experiment: formation of angiotensin I in human plasma, radioimmunoassay (Nussberger et al.)
Type: biochemical
Settings: read-out: IC50, inhibition of the formation of angiotensin I
Procedure: The effect of renin inhibitors is detected inter alia experimentally by means of in vitro tests where the reduction in the formation of angiotensin I is measured in various systems (human plasma, purified human renin together with synthetic or natural renin substrate). The following in vitro test of Nussberger et al. (1987) J. Cardiovascular Pharmacol., Vol. 9, pp. 39-44, is used inter alia. This test measures the formation of angiotensin I in human plasma. The amount of angiotensin I formed is determined in a subsequent radioimmunoassay. The effect of inhibitors on the formation of angiotensin I is tested in this system by adding various concentrations of these substances. The IC50 is defined as the concentration of the particular inhibitor which reduces the formation of angiotensin I by 50%. The compounds of the present invention show inhibitory effects in the in vitro systems at minimal concentrations of about 10^−6 to about […].

IC50: 48 nM
SMILES: CCCc1nc(COC[C@@H](C)OCC)ccc1[C@@]1(O)CCNC[C@@H]1OCc1ccc2c(c1)N(CCCOC)CCO2 [Example 501, (3′S,4′S)-6-((R)-2-Ethoxy-propoxymethyl)-3′-[4-(3-methoxy-propyl)-3,4-dihydro-2H-benzo[1,4]oxazin-6-ylmethoxy]-2-propyl-2′,3′,5′,6′-tetrahydro-1′H-[3,4′]bipyridinyl-4′-ol]
